# In a melting point compilation (Tetko et al.; mined from patent text by program, amines drawn as free bases though some values may be those of a salt):
row,melting point [°C],SMILES
1,114 to 115,COC(=O)C(=O)c1cc(F)c(OCCOc2ccc3ccccc3c2)c(F)c1
2,194,N#CCN1CCC(NC(=O)c2cc(Cl)c(N)c3c2OCCC3)CC1
3,205 to 208,Nc1c2c(nc3ccccc13)-c1ccc(Cl)cc1CC2
4,143,COc1ccc(Cn2c(=O)oc(=O)c3ccccc32)cc1
5,165 to 167,COc1ccc(OC)c2c(Cl)c(C#N)cnc12
6,241 to 242,O=c1cc(CO)nc2ccn(-c3ccccc3)n12
7,120,CCCN(CCCCNC(=O)N1CCN(c2ccccc2)CC1)C1CCc2ncsc2C1 (stereo not given)
8,293 to 295,O=C(O)c1cccc(-c2ncc(O)cn2)c1
9,135 to 137,COC(=O)c1cnccc1C(=O)c1ccc(-n2ccnc2)cc1
10,146 to 148,COc1cc(N)c(Cl)cc1C(=O)NCC1CCN(CCCSc2ccccc2)CC1
11,233 to 234,CS(=O)c1cccc(-n2cnc(-c3ccc(F)cc3)c2-c2ccncc2)c1 (stereo not given)
12,206 to 208,CC(C(=O)O)c1ccc2sc3ncccc3c(=O)c2c1 (stereo not given)
13,131 to 132,CCCC(=O)N(Cc1ccc(-c2ccccc2-c2nc(=O)s[nH]2)cc1)c1sc(C)cc1C(=O)OC
14,162 to 164,COc1ccc(C2=NN(C3CCN(C(=O)c4cccnc4)CC3)C(=O)CC2)cc1OC
15,203,c1ccc(COc2ccc3nc(-c4ccc(C56CC7CC(CC(C7)C5)C6)c(OCc5ccccc5)c4)[nH]c3c2)cc1
16,129 to 130,CCCc1c(OCCCOc2ccc(C(=O)C(=O)O)cc2)ccc(C(C)=O)c1O
17,131 to 132,CCN1c2nc(Cl)ccc2NC(=O)c2cc(CCc3cccc(NS(C)(=O)=O)c3)cnc21
18,197 to 199,CC(=O)N1c2cscc2C(=O)N(C)c2ccccc21
19,231,Cn1nc(-c2cnc(N)nc2-c2ccc(F)c(F)c2)ccc1=O
20,111 to 114,COC(=O)CS(=O)(=O)Nc1c(F)cccc1Oc1nc(OC)cc(OC)n1
21,126 to 127,COc1ccc(N2CCN(Cc3coc4c(OC)cccc34)CC2)cc1
22,112 to 113,CCOC1CCC(=O)N1S(=O)(=O)c1ccccc1 (stereo not given)
23,228 to 230,COc1cc(Nc2ncc3cc(-c4c(Cl)cccc4Cl)c(=O)n(C)c3n2)cc(OC)c1
24,186 to 188,COc1cc2oc(=O)c3c(c2cc1OC)CCNC3
25,220 to 221,O=C(O)CCCCN1CCN(C2=Nc3ccccc3Sc3ccc(Cl)cc32)CC1
26,136,CCCCOC(=O)n1ccc(NC(=O)Nc2cccc3c2C2CCCCN2C3=O)n1 (stereo not given)

row,melting point [°C],SMILES
1,163 to 165,COc1cccc(S(=O)(=O)N2C3CCC2CN(CC(=O)Nc2ccccc2C)C3)c1
2,128 to 130,CCOC(=O)c1ccc2cc(OC(=S)N(C)C)ccc2c1
3,198 to 200,CCN(C(=O)c1cc(Cl)c(NC(=O)C(F)(F)F)cc1OC)C1CCN(Cc2ccccc2)CC1
4,167 to 170,CCCCn1c(=O)cc(NN)n(Cc2ccc(OC)cc2)c1=O
5,108 to 110,CCCc1c(OCCOc2ccccc2C(=O)O)ccc(C(C)=O)c1O
6,151 to 156,CC(C)C(=O)C(=Cc1cc(O)c(O)c([N+](=O)[O-])c1)c1ccccc1
7,242 to 244,Cc1cc(N2CCc3ccccc32)nc(N)n1
8,168,Fc1ccc(Cn2c(NC3CCN(CCNc4ncccn4)CC3)nc3ccccc32)cc1
9,157 to 159,CC(C)[C@H](NC(=O)c1ccc(Cn2nnc(-c3ccc(OC(=O)C(C)(C)C)cc3)n2)cc1)C(=O)OCc1ccccc1
10,185 to 187,CCOC(=O)c1cn(C2CC2)c2cc(F)c(F)c(C)c2c1=O
11,> 315,CCOC(=O)Nc1nc2cc(C(O)c3ccccc3)ccc2[nH]1 (stereo not given)
12,131 to 133,CC(C)(C)[Si](C)(C)OCCCC(=O)c1cc(-c2ccc(S(C)(=O)=O)cc2)n(C2CCCCC2)n1
13,172 to 175,CCn1ncc(C(=O)c2ccc(S(C)(=O)=O)cc2Cl)c1O
14,225,O=C(O)c1ccc(-c2ncn(-c3ccc(C(F)(F)C(F)(F)C(F)(F)F)cc3)n2)cc1
15,128 to 130,CC(=O)CN1CCc2c(c(=O)oc3ccccc23)C1
16,133 to 135,COc1cc2c(cc1OC)CC(C(=O)O)C2
17,155,CN1CCC(=C(c2ccn(C)c2)c2ncc[nH]2)CC1
18,176,COc1ccc(C(CO)CNC(=O)C(N)=O)cc1OC1CCCC1 (stereo not given)
19,273,CC(C)(C)c1ccccc1N1CCN(C(=O)C2CCC(=O)N2CC(=O)O)CC1 (stereo not given)
20,149 to 152,CCOC(=O)c1cnc2ccc(Cl)nn2c1=O
21,190 to 193,COC(=O)C1=C(C)NC(=O)N(C(=O)OC)C1c1cccc(N)c1 (stereo not given)
22,183 to 186,COC(=O)c1ccc(OC)cc1S(=O)(=O)NC(=O)Nc1nc(C)nc(OC)n1
23,147 to 148,CN1CC(CN2CCC(C(O)(c3ccc(F)cc3)c3ccc(F)cc3)CC2)OC1=O (stereo not given)
24,156 to 157,CC(=O)N[C@@H](C)COc1cc(-c2nc3cc(OCC4CC4)ccc3o2)on1
25,239 to 241,COc1ccncc1Nc1nc(N2CCOCC2)nc(-n2c(C(F)F)nc3c(OC)cccc32)n1

# The remaining lines, values behind:
row,SMILES,melting point [°C]
1,CC1(C)COC(C)(C)N1C(=O)OCCN(Cc1ccccc1)Cc1ccccc1,32
2,COCn1ccnc1C(O)(c1ccc(Cl)cc1)c1ccc(Cl)cc1,145 to 146
3,CS(=O)(=O)c1ccc(OCCO)cc1,89 to 90
4,CC(C)c1ccc(C(=O)Cc2ccsc2)c(C(C)C)c1OS(N)(=O)=O,136 to 138
5,O=C(O)CC1(C(=O)O)CCc2cc3ccccc3n2C1 (stereo not given),185 to 188
6,CCCCCCCCCCCCCCCC(=O)Nc1ccc(O)c(C(C)=O)c1,120 to 122
7,O=C(c1ccc(S(=O)(=O)Cl)cc1)c1cccs1,118
8,Nc1cc(OCc2cccc(Cl)c2)c(C(=O)NC2CN3CCC2CC3)cc1Cl (stereo not given),168 to 169
9,CSCc1cn(C)c2c(Cl)cccc2c1=O,146 to 148
10,O=C(O)Cc1cccc(OCc2ccccc2)c1,127 to 129
11,CNCC(O)CN1CCN(CC(O)Cn2c3ccc(Br)cc3c3cc(Br)ccc32)CC1 (stereo not given),65 to 75
12,[N-]=[N+]=NOS(=O)(=O)N=[N+]=[N-],60
13,COC(=O)Cc1cc(Br)c(S)c(Br)c1,63.5 to 65
14,CC[Si](C#CC1(CO)OC(n2ccc(=O)[nH]c2=O)C(O)C1O)(CC)CC (stereo not given),183 to 186
15,O=C(CCOc1cccc(-c2ccccc2)c1)NO,113 to 116
16,CCCCS(=O)(=O)N(CCN(CC)CC)c1ccc(C(Cl)=C(c2ccccc2)c2ccccc2)cc1,65 to 70
17,CCCCc1ccc(-c2cnc(-c3ccc(C#N)cc3)nc2)cc1,94.7
18,Nc1cc(C(F)(F)F)ccc1-c1cc2ccccc2[nH]1,164 to 166
19,COC(=O)ON=C(N)c1ccc(C(=O)OC(C)(C)C)cc1,157 to 159
20,O=c1c(Cl)c(CCl)nc2scnn12,193 to 195
21,CC(C)(C)c1cc(-n2nc3ccccc3n2)c(O)c(C(C)(C)C)c1,150 to 152
22,CC(O)c1ccc(-c2ccc(N)cc2)o1 (stereo not given),100 to 104
23,Cc1cnc(Cl)c(C(=O)N(C)C)c1,117 to 119
24,Cc1ccc(NC(=O)N2C(=O)C3(CCCCC3)NC23CCCCC3)cc1,136 to 138
25,Cc1cc(-c2cnn3c(C(F)(F)F)cc(-c4ccc(OCC(F)(F)F)c(C(F)(F)F)c4)nc23)cc(C)n1,229
26,COC(=O)c1cc(Cl)cc(C=O)c1O,132 to 134
27,C[C@H](O)CCC[C@H](O)CCCCCc1cc(O)cc(O)c1C(=O)O,116 to 118

row,SMILES,melting point [°C]
1,O=Cc1c[nH]c2c1ccc1c3cc([N+](=O)[O-])ccc3[nH]c12,> 250
2,N#CCc1cc(Cl)cc2c(-c3ccc(Cl)cc3)onc12,187 to 190
3,Clc1ccc(OCc2cccs2)cc1,45 to 47
4,C[C@@H](NC(=CC(=O)OC(C)(C)C)Cc1cc(F)c(F)cc1F)c1ccccc1,76
5,OCCC(O)OCn1cc(Br)c2c(Cl)ncnc21 (stereo not given),152
6,COC1SC=C(C)NC1=O (stereo not given),157 to 160
7,CC(=O)SCC(=Cc1cc(F)cc(F)c1)C(=O)NCCC(=O)OCc1ccccc1,82
8,O=Cc1cccn2ccnc12,137 to 139
9,COC1C(O)C(CO)OC1n1ccc(N)nc1=O (stereo not given),252 to 254
10,CCC(=O)S(=O)(=O)c1ccc(C=C(C)c2ccc3c(c2)C(C)(C)CCC3(C)C)cc1,140 to 141
11,CC(C)CCOc1cccc2c1C(=O)CC(c1nnn[nH]1)O2 (stereo not given),134 to 137
12,Cc1ccoc1C(=O)Nc1ccc(-n2nc(C(F)(F)F)cc2C(F)(F)F)cc1,119 to 120
13,c1csc(-c2cnc(COc3ccc(CCCn4ccnc4)cc3)s2)c1,82 to 84
14,Cc1ccc(S(=O)(=O)Oc2cccc(NC(=O)NS(=O)(=O)c3ccccc3)c2)cc1,162 to 170
15,O=P(c1ccccc1)(c1ccccc1)c1cc(P(=O)(c2ccccc2)c2ccccc2)ncn1,213 to 215
16,O=C(SCC(Cc1ccccc1)C(=O)O)c1ccccc1 (stereo not given),99 to 100
17,Nc1ccccc1Cc1nc[nH]n1,134 to 136
18,Fc1nc(NCc2ccccn2)c2nc[nH]c2n1,217 to 220
19,CC(C)CC(NC(=O)Cc1ccc2ccccc2c1)C(=O)NC(Cc1ccccc1)C(=O)CSCc1ccco1 (stereo not given),123 to 125
20,Cc1cc2[nH]c(=O)c(=O)[nH]c2cc1C,> 250
21,CCOn1c(SC)n[nH]c1=O,99
22,O=C1N(Cc2ccccc2)C2CSC(O)C2N1Cc1ccccc1 (stereo not given),163 to 164
23,C#CCOC(=O)c1ccc(O)cc1O,104 to 106
24,C=C1CC2(C)C(O)CCC2C2C(C)CC3=CC(=O)CCC3C12 (stereo not given),138 to 139
25,Cc1cc(C(=O)/C=C/C(=O)O)c(C)o1,144 to 147
26,CCOC(=O)c1ccc(OCc2ccc(F)cc2)cc1,60 to 62
27,CC(=NO)c1noc2ccccc12,193 to 195
